The values below come from publication PMC5114558, “Reader domain specificity and lysine demethylase-4 family function” (Nature Communications, 2016).

One assay addresses T1, KDM4B N960A (Homo sapiens, UniProt O94953, N960A).
T1 construct: DNA encoding DTDs (KDM4A 895–1011aa, KDM4B 917–1031aa and KDM4C 877–991aa); (His)6-HaloTag (pFN29) or (His)6 (pET28b); made in house; host or cells: Escherichia coli BL21 (DE3)
T1 sequence (O94953 917-1031 N960A): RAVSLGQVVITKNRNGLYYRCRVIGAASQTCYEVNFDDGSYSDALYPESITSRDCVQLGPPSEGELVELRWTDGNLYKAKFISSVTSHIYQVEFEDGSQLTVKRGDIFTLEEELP
Briefly: FP binding, KDM4B-DTD N960A. Conditions: pH 7.4, Fig. 4g (± s.d., three replicates) and text. An excerpt: (§1) KDM4 protein sequences used in this study correspond to Uniprot ID: O75164 (human KDM4A, isoform 1), O94953 (human KDM4B, isoform1) and Q9H3R0 (human KDM4C, isoform1). Plasmid encoding KDM4A DTD was kindly provided by R-M Xu (Chinese Academy of Sciences). Complementary DNA encoding human KDM4B-DTD was synthesized (Integrated DNA Technologies). Plasmid containing cDNA of full-length KDM4C (clone ID: HsCD00341594) was obtained from Harvard Plasmid Repository. DNA encoding DTDs (KDM4A 895–1011aa, KDM4B 917–1031aa and KDM4C 877–991aa) were cloned into pFN29 (Promega) with N-terminal (His)6-HaloTag or pET28b with N-terminal (His)6 Tag using In-Fusion HD cloning kit (Clontech). […]
(§2) Peptide sequences are given in Supplementary Table 1. […] Polarization at each concentration was measured as triplicates in 384-well polystyrene black microplates (Thermo Fisher Scientific 262260) by Biotek Synergy H4 multimode plate reader (light source: xenon flash, offset from top: 7 mm, sensitivity: 60%, excitation: 485/20 nm, emission: 528/20 nm, both parallel and perpendicular, normal read speed). Fraction bound (Fb) at each concentration was calculated based on the corresponding polarization values (P): Fbc=(Pc−Pmin)/(Pmax−Pmin), where Pmin is the polarization value of no-protein control and Pmax is the polarization value of the saturation value for that peptide. […]

Assay [1] deals with T2, KDM4B DTD (human KDM4B double tudor domain, 917–1031aa) (Homo sapiens, UniProt O94953).
T2 construct: DNA encoding DTDs (KDM4A 895–1011aa, KDM4B 917–1031aa and KDM4C 877–991aa); (His)6-HaloTag (pFN29) or (His)6 (pET28b); made in house; host or cells: Escherichia coli BL21 (DE3)
T2 sequence (O94953 917-1031): T1 sequence (O94953 917-1031 N960A) with A44N
Briefly: fluorescence polarization (FP) binding, KDM4B-DTD wild-type. An excerpt:
(§3) KDM4 protein sequences used in this study correspond to Uniprot ID: O75164 (human KDM4A, isoform 1), O94953 (human KDM4B, isoform1) and Q9H3R0 (human KDM4C, isoform1). Plasmid encoding KDM4A DTD was kindly provided by R-M Xu (Chinese Academy of Sciences). Complementary DNA encoding human KDM4B-DTD was synthesized (Integrated DNA Technologies). Plasmid containing cDNA of full-length KDM4C (clone ID: HsCD00341594) was obtained from Harvard Plasmid Repository. DNA encoding DTDs (KDM4A 895–1011aa, KDM4B 917–1031aa and KDM4C 877–991aa) were cloned into pFN29 (Promega) with N-terminal (His)6-HaloTag or pET28b with N-terminal (His)6 Tag using In-Fusion HD cloning kit (Clontech). Plasmids encoding Xenopus laevis core histones were a generous gift of K. Luger (University of Colorado-Boulder). Site-directed mutagenesis was performed with Q5 Site-Directed Mutagenesis Kit (New England Biolabs).
(§4) Peptide sequences are given in Supplementary Table 1. […] A no-protein control with only peptide probe was included. Polarization at each concentration was measured as triplicates in 384-well polystyrene black microplates (Thermo Fisher Scientific 262260) by Biotek Synergy H4 multimode plate reader (light source: xenon flash, offset from top: 7 mm, sensitivity: 60%, excitation: 485/20 nm, emission: 528/20 nm, both parallel and perpendicular, normal read speed). Fraction bound (Fb) at each concentration was calculated based on the corresponding polarization values (P): Fbc=(Pc−Pmin)/(Pmax−Pmin), where Pmin is the polarization value of no-protein control and Pmax is the polarization value of the saturation value for that peptide. Dissociation constants (Kd) were derived by KaleidaGraph, Synergy Software (version 4.1.3) using the following equation: Fb=[protein]/([protein]+Kd).
On the technique in general: In fluorescence polarisation assays a small probe gives low polarisation when free and higher when bound to something large.

For another assay, the target named is T3, KDM4B S965D (Homo sapiens, UniProt O94953, S965D).
T3 construct: DNA encoding DTDs (KDM4A 895–1011aa, KDM4B 917–1031aa and KDM4C 877–991aa); (His)6-HaloTag (pFN29) or (His)6 (pET28b); made in house; host or cells: Escherichia coli BL21 (DE3)
T3 sequence (O94953 917-1031 S965D): T1 sequence (O94953 917-1031 N960A) with A44N, S49D
The assay is described as follows: FP binding, KDM4B-DTD S965D. The conditions noted are these: pH 7.4, Fig. 4i (± s.d., three replicates) and text.
From the text: as §1, §2

Assay [2] deals with T4, KDM4A DTD (human KDM4A double tudor domain, 895–1011aa) (Homo sapiens, UniProt O75164).
T4 construct: DNA encoding DTDs (KDM4A 895–1011aa, KDM4B 917–1031aa and KDM4C 877–991aa); (His)6-HaloTag (pFN29) or (His)6 (pET28b); made in house; host or cells: Escherichia coli BL21 (DE3)
T4 sequence (O75164 895-1011): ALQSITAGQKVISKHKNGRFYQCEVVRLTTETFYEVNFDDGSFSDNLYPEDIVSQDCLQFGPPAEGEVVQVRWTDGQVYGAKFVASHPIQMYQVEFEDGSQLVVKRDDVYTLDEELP
The assay is described as follows: fluorescence polarization (FP) binding, KDM4A-DTD wild-type.
From the text: as §3, §4

In assay [3] the target is T5, KDM4A-DTD triple mutant N931D/D939R/D945R (DRR) (Homo sapiens, UniProt O75164, D939R/D945R/N931D).
T5 construct: DNA encoding DTDs (KDM4A 895–1011aa, KDM4B 917–1031aa and KDM4C 877–991aa); (His)6-HaloTag (pFN29) or (His)6 (pET28b); made in house; host or cells: Escherichia coli BL21 (DE3)
T5 sequence (O75164 895-1011 N931D/D939R/D945R): T4 sequence (O75164 895-1011) with N37D, D45R, D51R
Briefly: FP binding, KDM4A-DTD DRR mutant.
From the text: as §1, §2

The next assay deals with T6, KDM4A-DTD Y973A (Homo sapiens, UniProt O75164, Y973A).
T6 construct: DNA encoding DTDs (KDM4A 895–1011aa, KDM4B 917–1031aa and KDM4C 877–991aa); (His)6-HaloTag (pFN29) or (His)6 (pET28b); made in house; host or cells: Escherichia coli BL21 (DE3)
T6 sequence (O75164 895-1011 Y973A limits assumed): T4 sequence (O75164 895-1011) with Y79A
The assay is described as follows: FP binding, KDM4A-DTD Y973A. The conditions noted are these: pH 7.4, aromatic cage mutant, Fig. 2e (± s.d., three replicates) and text.
From the text: as §1, §2

Assay [4] deals with T7, KDM4C DTD (human KDM4C double tudor domain, 877–991aa) (Homo sapiens, UniProt Q9H3R0).
T7 construct: DNA encoding DTDs (KDM4A 895–1011aa, KDM4B 917–1031aa and KDM4C 877–991aa); (His)6-HaloTag (pFN29) or (His)6 (pET28b); made in house; host or cells: Escherichia coli BL21 (DE3)
T7 sequence (Q9H3R0 877-991): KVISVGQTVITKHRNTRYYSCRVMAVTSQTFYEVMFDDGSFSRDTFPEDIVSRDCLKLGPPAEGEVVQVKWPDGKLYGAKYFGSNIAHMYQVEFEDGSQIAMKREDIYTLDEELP
Briefly: fluorescence polarization (FP) binding, KDM4C-DTD wild-type. The conditions noted are these: Fig. 1c, 3 nM fluorescein-labelled peptide, pH 7.4, ± s.d. from three experimental replicates, read-out: binding constant (FP), KDM4C-DTD.
From the text: as §1, §2

For the next assay, the target named is T8, KDM4A-DTD N931R (Homo sapiens, UniProt O75164, N931R).
T8 construct: DNA encoding DTDs (KDM4A 895–1011aa, KDM4B 917–1031aa and KDM4C 877–991aa); (His)6-HaloTag (pFN29) or (His)6 (pET28b); made in house; host or cells: Escherichia coli BL21 (DE3)
T8 sequence (O75164 895-1011 N931R limits assumed): T4 sequence (O75164 895-1011) with N37R
The assay is described as follows: FP binding, KDM4A-DTD N931R. The conditions noted are these: pH 7.4, Fig. 2j (± s.d., three replicates) and text, read-out: binding affinity, KDM4A-DTD N931R.
From the text: as §1, §2

Another assay concerns the target T9, KDM4A-DTD N931D (Homo sapiens, UniProt O75164, N931D).
T9 construct: DNA encoding DTDs (KDM4A 895–1011aa, KDM4B 917–1031aa and KDM4C 877–991aa); (His)6-HaloTag (pFN29) or (His)6 (pET28b); made in house; host or cells: Escherichia coli BL21 (DE3)
T9 sequence (O75164 895-1011 N931D): T4 sequence (O75164 895-1011) with N37D
The assay is described as follows: FP binding, KDM4A-DTD N931D. The conditions noted are these: pH 7.4, Fig. 2j (± s.d., three replicates), Supplementary Fig. 2f and text.
From the text: as §1, §2

Another assay has as its target T10, KDM4B-DTD Y993A (Homo sapiens, UniProt O94953, Y993A).
T10 construct: DNA encoding DTDs (KDM4A 895–1011aa, KDM4B 917–1031aa and KDM4C 877–991aa); (His)6-HaloTag (pFN29) or (His)6 (pET28b); made in house; host or cells: Escherichia coli BL21 (DE3)
T10 sequence (O94953 917-1031 Y993A): T1 sequence (O94953 917-1031 N960A) with A44N, Y77A
The assay is described as follows: FP binding, KDM4B-DTD Y993A. Conditions: aromatic cage mutant, Supplementary Fig. 4d, value printed in peer review file.
From the text: as §1, §2

A further assay concerns the target T11, KDM4A-DTD N940A (Homo sapiens, UniProt O75164, N940A).
T11 construct: DNA encoding DTDs (KDM4A 895–1011aa, KDM4B 917–1031aa and KDM4C 877–991aa); (His)6-HaloTag (pFN29) or (His)6 (pET28b); made in house; host or cells: Escherichia coli BL21 (DE3)
T11 sequence (O75164 895-1011 N940A): T4 sequence (O75164 895-1011) with N46A
Briefly: FP binding, KDM4A-DTD N940A. The conditions noted are these: pH 7.4, Fig. 2g, 4g (± s.d., three replicates) and text.
From the text: as §1, §2

Residue numbers refer to the chain shown, from its start. Where two headings read alike, the source gives them in different places.

As for `C[C@H](N)C(=O)N[C@@H](CCCNC(=N)N)C(=O)N[C@H](C(=O)N[C@@H](CCCC[N+](C)(C)C)C(=O)N[C@@H](CCC(N)=O)C(=O)N[C@H](C(=O)N[C@@H](C)C(=O)N[C@@H](CCCNC(=N)N)C(=O)N[C@@H](CCCCN)C(=O)N[C@@H](CO)C(=O)N[C@H](C(=O)NCC(=O)NCC(=O)N[C@@H](CCCCNC(=O)c1ccc2c(c1)C(=O)OC21c2ccc(O)cc2Oc2cc(O)ccc21)C(=O)O)[C@@H](C)O)[C@@H](C)O)[C@@H](C)O` [H3K4me3], the Kd is 304 ± 35.8 µM at KDM4B N960A; over 3 mM in [1] (matrix Fig. 1d, values given in mM, pH 7.4, read-out: binding affinity (Kd), KDM4B DTD); 199 ± 16.1 µM at KDM4B S965D; 2.7 µM in assay [2] (matrix Fig. 1d and Fig. 3c, pH 7.4, read-out: binding affinity (Kd), KDM4A DTD wild-type).

Regarding `CC(C)C[C@H](NC(=O)[C@H](CCC(N)=O)NC(=O)[C@H](CCCCN)NC(=O)[C@H](CCCNC(=N)N)NC(=O)c1ccc2c(c1)C(=O)OC21c2ccc(O)cc2Oc2cc(O)ccc21)C(=O)N[C@@H](C)C(=O)N[C@H](C(=O)N[C@@H](CCCC[N+](C)(C)C)C(=O)N[C@@H](C)C(=O)N[C@@H](C)C(=O)N[C@@H](CCCNC(=N)N)C(=O)N[C@@H](CCCCN)C(=O)N[C@@H](CO)C(=O)N[C@@H](C)C(=O)N1CCC[C@H]1C(=O)N[C@@H](C)C(=O)N[C@H](C(=O)O)[C@@H](C)O)[C@@H](C)O` [H3K23me3], the “Kd of DRR mutant” value in [3] is on record as “low micromolar Kd value”. Moreover, the Kd turned out to be 285 µM on KDM4A-DTD Y973A; 73.6 ± 3.9 µM in assay [4]; 73.9 µM on KDM4A-DTD N931R; 0.85 µM on KDM4A-DTD N931D; 327 µM at KDM4B-DTD Y993A; 0.0103 ± 0.0012 mM in assay [1] (Fig. 1c, 3 nM fluorescein-labelled peptide, pH 7.4, ± s.d. from three experimental replicates, read-out: binding constant (FP), KDM4B-DTD). Further, the Kd on KDM4A-DTD N940A was 57.4 µM; in assay [2] (pH 7.4, read-out: Kd, KDM4A-DTD wild-type), 2.2 µM.
